Laboratory results reported in US20260062387A1, “SALT-INDUCIBLE KINASE INHIBITOR COMPOUND AND PHARMACEUTICAL COMPOSITION INCLUDING THE SAME” (MITSUBISHI TANABE PHARMA CORPORATION, priority 2023, published 2026).
Marks after values point to notes of the source that are not given here.

Columns and labels:
GST-tagged SIK1 = GST-tagged SIK1 (Homo sapiens (Human), UniProt P57059); assay: SIK1 inhibition test (ADP-Glo Max Assay); assay type: biochemical; conditions: enzyme 20 nM, AMARA Peptide 200 μM, ATP 1 mM, 2 hours room temperature
Sequence of GST-tagged SIK1 (P57059 whole entry): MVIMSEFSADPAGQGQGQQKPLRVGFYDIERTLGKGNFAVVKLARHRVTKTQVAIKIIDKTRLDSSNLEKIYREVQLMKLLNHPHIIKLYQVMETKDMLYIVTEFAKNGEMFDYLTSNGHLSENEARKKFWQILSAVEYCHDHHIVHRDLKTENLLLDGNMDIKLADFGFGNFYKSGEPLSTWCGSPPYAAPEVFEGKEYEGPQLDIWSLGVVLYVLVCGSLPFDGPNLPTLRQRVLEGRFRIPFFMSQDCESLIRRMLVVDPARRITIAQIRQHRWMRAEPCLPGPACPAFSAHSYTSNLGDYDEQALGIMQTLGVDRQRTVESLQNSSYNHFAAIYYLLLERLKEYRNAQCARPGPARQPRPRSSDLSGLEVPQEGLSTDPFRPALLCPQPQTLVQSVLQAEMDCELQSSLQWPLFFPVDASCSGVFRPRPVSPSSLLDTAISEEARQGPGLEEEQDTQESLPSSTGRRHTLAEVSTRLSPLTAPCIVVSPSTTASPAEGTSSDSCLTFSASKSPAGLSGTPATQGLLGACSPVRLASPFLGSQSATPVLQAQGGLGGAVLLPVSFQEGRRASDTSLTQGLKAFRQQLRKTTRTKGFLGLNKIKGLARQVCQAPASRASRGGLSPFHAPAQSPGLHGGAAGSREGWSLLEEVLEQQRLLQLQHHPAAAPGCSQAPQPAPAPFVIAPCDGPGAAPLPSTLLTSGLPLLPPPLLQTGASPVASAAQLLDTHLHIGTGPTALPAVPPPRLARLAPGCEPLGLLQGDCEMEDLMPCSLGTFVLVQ
Outline: (§1)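 GST-tagged human SIK1, SIK2 and SIK3 at 20 nM, 3 nM and 100 nM final in Tris pH 7.5 buffer, with AMARA peptide (200 μM for SIK1/SIK2, 100 μM for SIK3), 1 mM ATP and 5 mM MgCl2. Reaction ran 2 h at room temperature. ADP read by ADP-Glo Max luminescence, and IC50 fitted from 16 concentrations.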

GST-tagged SIK2 = GST-tagged SIK2 (Homo sapiens (Human), UniProt Q9H0K1); assay: SIK2 inhibition test (ADP-Glo Max Assay); assay type: biochemical; conditions: enzyme 3 nM, AMARA Peptide 200 μM, ATP 1 mM, 2 hours room temperature
Sequence of GST-tagged SIK2 (Q9H0K1 whole entry): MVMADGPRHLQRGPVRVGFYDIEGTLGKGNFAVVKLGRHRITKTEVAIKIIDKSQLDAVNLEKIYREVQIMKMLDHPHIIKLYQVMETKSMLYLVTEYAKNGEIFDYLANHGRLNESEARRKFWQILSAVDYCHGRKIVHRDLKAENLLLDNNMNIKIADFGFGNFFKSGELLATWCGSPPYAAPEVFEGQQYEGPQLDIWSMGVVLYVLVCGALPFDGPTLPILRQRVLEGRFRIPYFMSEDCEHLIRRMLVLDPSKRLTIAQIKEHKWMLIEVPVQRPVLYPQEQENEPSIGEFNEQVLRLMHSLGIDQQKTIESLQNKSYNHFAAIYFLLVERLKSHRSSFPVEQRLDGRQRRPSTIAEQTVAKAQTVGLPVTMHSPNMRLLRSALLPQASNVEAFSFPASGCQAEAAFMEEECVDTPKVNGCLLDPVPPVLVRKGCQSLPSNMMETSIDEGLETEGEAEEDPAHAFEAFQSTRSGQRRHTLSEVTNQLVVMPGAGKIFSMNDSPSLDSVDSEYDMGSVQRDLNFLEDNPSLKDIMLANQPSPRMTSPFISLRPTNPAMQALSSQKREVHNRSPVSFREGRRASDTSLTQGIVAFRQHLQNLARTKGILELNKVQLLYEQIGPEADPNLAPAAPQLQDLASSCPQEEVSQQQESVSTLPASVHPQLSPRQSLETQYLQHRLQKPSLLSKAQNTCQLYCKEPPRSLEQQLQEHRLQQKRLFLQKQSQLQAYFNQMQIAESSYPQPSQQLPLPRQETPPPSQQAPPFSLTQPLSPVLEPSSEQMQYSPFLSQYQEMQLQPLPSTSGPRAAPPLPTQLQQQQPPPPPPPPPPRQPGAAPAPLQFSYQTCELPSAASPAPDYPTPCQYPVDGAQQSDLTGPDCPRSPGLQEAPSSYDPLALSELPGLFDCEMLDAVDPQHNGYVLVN
Outline: as §1

GST-tagged SIK3 = GST-tagged SIK3 (Homo sapiens (Human), UniProt Q9Y2K2); assay: SIK3 inhibition test (ADP-Glo Max Assay); assay type: biochemical; conditions: enzyme 100 nM, AMARA Peptide 100 μM, ATP 1 mM, 2 hours room temperature
Sequence of GST-tagged SIK3 (Q9Y2K2 whole entry): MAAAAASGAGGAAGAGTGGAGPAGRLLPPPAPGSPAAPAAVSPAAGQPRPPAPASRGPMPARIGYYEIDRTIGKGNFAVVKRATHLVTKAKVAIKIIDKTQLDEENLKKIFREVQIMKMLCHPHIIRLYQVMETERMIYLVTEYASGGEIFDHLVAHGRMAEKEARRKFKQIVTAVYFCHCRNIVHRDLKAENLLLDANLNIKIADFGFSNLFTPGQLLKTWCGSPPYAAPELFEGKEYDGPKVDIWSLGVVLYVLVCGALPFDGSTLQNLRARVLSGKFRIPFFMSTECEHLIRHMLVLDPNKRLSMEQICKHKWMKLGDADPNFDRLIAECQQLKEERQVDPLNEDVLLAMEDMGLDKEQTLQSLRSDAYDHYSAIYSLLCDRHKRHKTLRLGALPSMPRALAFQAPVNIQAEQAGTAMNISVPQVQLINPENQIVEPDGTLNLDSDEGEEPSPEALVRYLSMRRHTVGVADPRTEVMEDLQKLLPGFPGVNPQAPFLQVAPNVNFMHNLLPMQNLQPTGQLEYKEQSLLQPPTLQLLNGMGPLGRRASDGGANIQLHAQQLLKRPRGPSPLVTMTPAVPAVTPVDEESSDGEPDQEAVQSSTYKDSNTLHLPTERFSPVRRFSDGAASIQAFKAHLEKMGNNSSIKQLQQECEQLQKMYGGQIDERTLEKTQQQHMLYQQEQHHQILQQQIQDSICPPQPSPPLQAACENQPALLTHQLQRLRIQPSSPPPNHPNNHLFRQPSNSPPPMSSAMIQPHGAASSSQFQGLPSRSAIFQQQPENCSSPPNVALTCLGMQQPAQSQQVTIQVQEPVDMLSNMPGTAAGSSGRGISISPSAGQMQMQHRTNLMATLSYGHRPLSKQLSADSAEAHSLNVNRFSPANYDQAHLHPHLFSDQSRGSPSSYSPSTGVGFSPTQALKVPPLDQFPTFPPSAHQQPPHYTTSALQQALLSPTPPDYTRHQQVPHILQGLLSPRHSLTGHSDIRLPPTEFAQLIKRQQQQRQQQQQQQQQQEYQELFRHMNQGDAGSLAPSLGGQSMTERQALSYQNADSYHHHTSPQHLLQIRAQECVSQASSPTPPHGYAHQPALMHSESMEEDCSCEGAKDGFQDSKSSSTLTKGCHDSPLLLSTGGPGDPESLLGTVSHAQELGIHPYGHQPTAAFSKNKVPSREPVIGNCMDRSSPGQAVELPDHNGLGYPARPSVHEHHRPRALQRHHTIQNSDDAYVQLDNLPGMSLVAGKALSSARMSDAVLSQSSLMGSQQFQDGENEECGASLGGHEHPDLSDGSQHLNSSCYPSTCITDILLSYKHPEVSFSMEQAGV
Outline: as §1

[1] = test system: TNF-α production in LPS-stimulated human monocytes; assay: TNF-α production inhibition test in LPS-stimulated human monocytes; assay type: cell-based; conditions: Monocyte, LPS 100 ng/mL, 4 hours
Procedure: (§2) The compound of Example 106 was used as the test compound.
Cryopreserved mononuclear cells derived from human peripheral blood (LONZA K. K.) were thawed at 37° C., and human monocytes were isolated using CD14 Microfleads (Miltenyi Biotec). The isolated human monocytes were mixed with a culture medium (RPMI 1640, 10% FBS, penicillin, streptomycin), and a DMSO solution of a concentration of the test compound was added. The mixture was incubated at 37° C. for 30 minutes. After the incubation, lipopolysaccharide (LPS; Sigma Aldrich) was added so that the final concentration would be 100 ng/mL. The mixture was incubated at 37° C. for 4 hours. After the incubation, the supernatant was recovered and cryopreserved at −80° C. The cryopreserved supernatant was thawed and the amount of TNF-α production in the supernatant was measured using CBA Human TNF Flex Set (BD Bioscience).
Inhibitory ratio (%) was calculated by: % Inhibition={1−(amount of TNF-α production in sample−amount of TNF-α production without stimulus (DMSO added, not LPS-stimulated))/(amount of TNF-α production in control (DMSO added, LPS-stimulated)−amount of TNF-α production without stimulus (DMSO added, not LPS-stimulated))}×100. The inhibitory concentration IC50was calculated based on 4 data values obtained in the concentration response test.

[2] = test system: TNF-α in serum of LPS-stimulated mice; assay: TNF-α increase inhibition test in LPS-stimulated mouse serums; assay type: in vivo, BALB/c mice; conditions: 1 mg/kg oral, LPS intraperitoneal 30 minutes later, serum 1.5 hours later
Procedure: as §2
Six-week old male BALB/c mice were orally administered with a suspension (10 mL/kg) of a concentration of the test compound in 0.5% methylcellulose (MC) solution. 30 Minutes later, […] of LPS (Sigma Aldrich) was intraperitoneally administered. […] The amount of TNF-α production in the serum was measured using CBA […] TNF Flex Set (BD Bioscience).
The inhibitory ratio (%) was calculated by: % Inhibition={1−(amount of TNF-α production in sample−average amount of TNF-α production without stimulus (MC administered, not LPS-stimulated)/(average amount of TNF-α production in control (MC administered, LPS-stimulated)−average amount of TNF-α production without stimulus (MC administered, not LPS-stimulated))}×100. The results are described in Table 4 below.

| Compound | IC50 (GST-tagged SIK1) | IC50 (GST-tagged SIK2) | IC50 (GST-tagged SIK3) | IC50 [1] | TNF α increase inhibition ratio [2] |
| --- | --- | --- | --- | --- | --- |
| CCCn1cc(-c2cc(C#N)c3c(-c4cc(OC)c5c(c4)[C@@H](C)CNC5=O)n(C)nc3c2)cn1 (single isomer, unassigned) [Example 106] | 8 nM | 3.1 nM | 6.8 nM | 19 nM | 47.2** % |
| CCn1cc(-c2cc(OC(F)F)c3c(-c4cc(OC)c(C(N)=O)c(OC(F)F)c4)n(C)nc3c2)cn1 [Example 155, 2-(difluoromethoxy)-4-[4-(difluoromethoxy)-6-(1-ethylpyrazol-4-yl)-2-methylindazol-3-yl]-6-methoxybenzamide] | 7.4 nM | 1.5 nM | 5.5 nM | – | – |
| COc1cc(-c2c3c(OCC(F)F)cc(-c4cnn(C)c4)cc3nn2C)cc(OC(F)F)c1C(N)=O [Example 156, 4-[4-(2,2-difluoroethoxy)-2-methyl-6-(1-methylpyrazol-4-yl)indazol-3-yl]-2-(difluoromethoxy)-6-methoxybenzamide] | 4.3 nM | 0.7 nM | 2.6 nM | – | – |
| COc1cc(-c2c3c(C(F)F)cc(-c4cnn([C@H]5CCOC5)c4)cc3nn2C)cc(OC(F)F)c1C(N)=O [Example 158, 2-(difluoromethoxy)-4-[4-(difluoromethyl)-2-methyl-6-[1-[(3S)-oxolan-3-yl]pyrazol-4-yl]indazol-3-yl]-6-methoxybenzamide] | 11.7 nM | 2.2 nM | 3.6 nM | – | – |
| COc1cc(-c2c3c(C(F)F)cc(-c4cnn([C@@H]5CCOC5)c4)cc3nn2C)cc(OC(F)F)c1C(N)=O [Example 159, 2-(difluoromethoxy)-4-[4-(difluoromethyl)-2-methyl-6-[1-[(3R)-oxolan-3-yl]pyrazol-4-yl]indazol-3-yl]-6-methoxybenzamide] | 13.8 nM | 2.8 nM | 4.6 nM | – | – |

More lines, in order of falling IC50 (GST-tagged SIK1), values ahead:

| IC50 (GST-tagged SIK1) | IC50 (GST-tagged SIK2) | IC50 (GST-tagged SIK3) | IC50 [1] | Compound | TNF α increase inhibition ratio [2] |
| --- | --- | --- | --- | --- | --- |
| 8.1 nM | 2.5 nM | 3.2 nM | – | Cn1cc(-c2cc(C#N)c3c(-c4cc(OC(F)F)c5c(c4)C(C)(C)CNC5=O)n(C)nc3c2)cn1 [Example 162, 3-[8-(difluoromethoxy)-4,4-dimethyl-1-oxo-2,3-dihydroisoquinolin-6-yl]-2-methyl-6-(1-methylpyrazol-4-yl)indazol-4-carbonitrile] | – |
| 7.5 nM | 1 nM | 3 nM | – | CC1CNC(=O)c2c(OC(F)F)cc(-c3c4c(C#N)cc(-c5cnn(C)c5)cc4nn3C)cc21 (centres unmarked) [Example 160, 3-[8-(difluoromethoxy)-4-methyl-1-oxo-3,4-dihydro-2H-isoquinolin-6-yl]-2-methyl-6-(1-methylpyrazol-4-yl)indazol-4-carbonitrile] | – |
| 5.6 nM | 1.3 nM | 10 nM | – | COc1cc(-c2cnn(C)c2)cc2nn(C)c(-c3cc(OC(F)F)c4c(c3)C(C)CNC4=O)c12 (centres unmarked) [Example 161, 8-(difluoromethoxy)-6-[4-methoxy-2-methyl-6-(1-methylpyrazol-4-yl)indazol-3-yl]-4-methyl-3,4-dihydro-2H-isoquinolin-1-one] | – |
| 5.1 nM | 1 nM | 7.9 nM | – | COc1cc(-c2c3c(OCC(F)(F)F)cc(-c4cnn(C)c4)cc3nn2C)cc(OC(F)F)c1C(N)=O [Example 157, 2-(difluoromethoxy)-6-methoxy-4-[2-methyl-6-(1-methylpyrazol-4-yl)-4-(2,2,2-trifluoroethoxy)indazol-3-yl]benzamide] | – |
